Results as given in patent US12577206B2 (BRISTOL-MYERS SQUIBB COMPANY, priority 2020, dated 2026).

Experiments:
human FPR2 = target: T1, human FPR2 (Homo sapiens, UniProt P25090); experiment: FPR2 cyclic adenosine monophosphate (cAMP) assay; format: cell-based; conditions: CHO cells overexpressing human FPR2; forskolin 5 μM; inhibition of cAMP production; HTRF; read-out: hFPR2 cAMP2 EC50
T1 sequence (P25090 1-351): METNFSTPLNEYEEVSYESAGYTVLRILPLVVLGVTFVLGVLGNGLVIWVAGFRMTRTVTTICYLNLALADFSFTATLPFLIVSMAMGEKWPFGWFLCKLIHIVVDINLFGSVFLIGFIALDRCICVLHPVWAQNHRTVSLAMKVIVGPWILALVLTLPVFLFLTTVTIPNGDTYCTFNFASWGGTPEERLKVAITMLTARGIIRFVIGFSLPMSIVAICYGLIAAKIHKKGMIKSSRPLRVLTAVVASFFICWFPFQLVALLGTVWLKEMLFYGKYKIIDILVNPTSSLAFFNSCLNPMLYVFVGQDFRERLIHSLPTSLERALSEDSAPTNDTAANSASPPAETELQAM
Procedure, shortened: (§1)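 CHO cells overexpressing human FPR1 (4,000/well) or FPR2 (2,000/well) were incubated 30 min at room temperature with compound (0.020 nM to 100 μM, 1% DMSO), IBMX 200 μM, and forskolin at 10 μM (FPR1) or 5 μM (FPR2), all final. HTRF cAMP read-out; inhibition fitted by 4-parameter logistic equation.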

human FPR1 = target: T2, human FPR1 (Homo sapiens, UniProt P21462); experiment: FPR1 cyclic adenosine monophosphate (cAMP) assay; format: cell-based; conditions: CHO cells overexpressing human FPR1; forskolin 10 μM; inhibition of cAMP production; HTRF; read-out: hFPR1 cAMP2 EC50
T2 sequence (P21462 1-350): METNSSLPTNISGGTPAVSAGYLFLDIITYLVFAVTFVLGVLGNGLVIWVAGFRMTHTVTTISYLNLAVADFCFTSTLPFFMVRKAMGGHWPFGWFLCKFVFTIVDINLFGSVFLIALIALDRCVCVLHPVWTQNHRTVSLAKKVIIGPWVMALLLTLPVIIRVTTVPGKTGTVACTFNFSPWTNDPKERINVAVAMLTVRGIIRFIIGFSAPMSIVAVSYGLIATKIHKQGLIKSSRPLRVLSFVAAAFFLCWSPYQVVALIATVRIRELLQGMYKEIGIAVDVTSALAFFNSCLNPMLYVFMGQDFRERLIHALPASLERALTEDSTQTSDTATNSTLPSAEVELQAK
Procedure, shortened: as §1

## COc1cc(OCC(O)C(F)(F)F)nc(-n2c(=O)c(NC(=O)c3ccc(OC(F)F)cc3)c(-c3c(F)cc(OC)cc3F)n2C)c1 (centres unmarked) [Example 380, N-(5-(2,6-Difluoro-4-methoxyphenyl)-2-(4-methoxy-6-(3,3,3-trifluoro-2-hydroxypropoxy)pyridin-2-yl)-1-methyl-3-oxo-2,3-dihydro-1H-pyrazol-4-yl)-4-(difluoromethoxy)benzamide]
Human FPR2
  EC50: 0.002 µM
Human FPR1
  EC50: 2.3 µM

## COc1cc(OC(CO)C(F)(F)F)nc(-n2c(=O)c(NC(=O)c3ccc(OC(F)F)cc3)c(-c3c(F)cc(OC)cc3F)n2C)c1 (centres unmarked) [Example 381, N-(5-(2,6-Difluoro-4-methoxyphenyl)-2-(4-methoxy-6-((1,1,1-trifluoro-3-hydroxypropan-2-yl)oxy)pyridin-2-yl)-1-methyl-3-oxo-2,3-dihydro-1H-pyrazol-4-yl)-4-(difluoromethoxy)benzamide]
Human FPR2
  EC50: 0.002 µM
Human FPR1
  EC50: 1.9 µM

## COCC(CO)Oc1cc(OC)cc(-n2c(=O)c(NC(=O)c3ccc(OC(F)F)cc3)c(-c3c(F)cc(OC)cc3F)n2C)n1 (centres unmarked) [Example 382, N-(5-(2,6-Difluoro-4-methoxyphenyl)-2-(6-((1-hydroxy-3-methoxypropan-2-yl)oxy)-4-methoxypyridin-2-yl)-1-methyl-3-oxo-2,3-dihydro-1H-pyrazol-4-yl)-4-(difluoromethoxy)benzamide]
Human FPR2
  EC50: 0.008 µM
Human FPR1
  EC50: > 10 µM

## COc1cc(OCC(O)C(F)(F)F)nc(-n2c(=O)c(NC(=O)c3ccc(OC(F)F)cc3)c(-c3c(F)cc(OC)cc3F)n2C)c1 (centres unmarked) [Example 383, N-(5-(2,6-Difluoro-4-methoxyphenyl)-2-(4-methoxy-6-(3,3,3-trifluoro-2-hydroxypropoxy)pyridin-2-yl)-1-methyl-3-oxo-2,3-dihydro-1H-pyrazol-4-yl)-4-(difluoromethoxy)benzamide]
Human FPR2
  EC50: 0.001 µM
Human FPR1
  EC50: 2.5 µM

## COc1cc(OCC2(CO)COC2)nc(-n2c(=O)c(NC(=O)c3ccc(OC(F)F)cc3)c(-c3c(F)cc(OC)cc3F)n2C)c1 [Example 384, N-(5-(2,6-Difluoro-4-methoxyphenyl)-2-(6-((3-(hydroxymethyl)oxetan-3-yl)methoxy)-4-methoxypyridin-2-yl)-1-methyl-3-oxo-2,3-dihydro-1H-pyrazol-4-yl)-4-(difluoromethoxy)benzamide]
Human FPR2
  EC50: 0.007 µM
Human FPR1
  EC50: > 10 µM

## COc1cc(OCC(C)(C)F)nc(-n2c(=O)c(NC(=O)c3ccc(OC(F)F)cc3)c(-c3c(F)cc(OC)cc3F)n2C)c1 [Example 385, N-(5-(2,6-Difluoro-4-methoxyphenyl)-2-(6-(2-fluoro-2-methylpropoxy)-4-methoxypyridin-2-yl)-1-methyl-3-oxo-2,3-dihydro-1H-pyrazol-4-yl)-4-(difluoromethoxy)benzamide]
Human FPR2
  EC50: 0.003 µM
Human FPR1
  EC50: > 10 µM

## COCC(CO)Oc1cc(OC)cc(-n2c(=O)c(NC(=O)c3ccc(OC(F)F)cc3)c(-c3c(F)cc(OC)cc3F)n2C)n1 (centres unmarked) [Example 386, N-(5-(2,6-Difluoro-4-methoxyphenyl)-2-(6-((1-hydroxy-3-methoxypropan-2-yl)oxy)-4-methoxypyridin-2-yl)-1-methyl-3-oxo-2,3-dihydro-1H-pyrazol-4-yl)-4-(difluoromethoxy)benzamide]
Human FPR2
  EC50: 0.009 µM
Human FPR1
  EC50: > 10 µM

## COc1cc(OCC(C)(F)F)nc(-n2c(=O)c(NC(=O)c3ccc(OC(F)F)cc3)c(-c3c(F)cc(OC)cc3F)n2C)c1 [Example 387, N-(5-(2,6-Difluoro-4-methoxyphenyl)-2-(6-(2,2-difluoropropoxy)-4-methoxypyridin-2-yl)-1-methyl-3-oxo-2,3-dihydro-1H-pyrazol-4-yl)-4-(difluoromethoxy)benzamide]
Human FPR2
  EC50: 0.008 µM
Human FPR1
  EC50: > 10 µM

## COc1cc(F)c(-c2c(NC(=O)c3ccc(OC(F)F)cc3)c(=O)n(-c3ccc(OCCO)cn3)n2C)c(F)c1 [Example 388, N-(5-(2,6-Difluoro-4-methoxyphenyl)-2-(5-(2-hydroxyethoxy)pyridin-2-yl)-1-methyl-3-oxo-2,3-dihydro-1H-pyrazol-4-yl)-4-(difluoromethoxy)benzamide]
Human FPR2
  EC50: 0.004 µM
Human FPR1
  EC50: 3.6 µM

## COc1cc(OCC(F)(F)F)nc(-n2c(=O)c(NC(=O)c3ccc(OC(F)F)cc3)c(-c3c(F)cc(OC)cc3F)n2C)c1 [Example 389, N-(5-(2,6-Difluoro-4-methoxyphenyl)-2-(4-methoxy-6-(2,2,2-trifluoroethoxy)pyridin-2-yl)-1-methyl-3-oxo-2,3-dihydro-1H-pyrazol-4-yl)-4-(difluoromethoxy)benzamide]
Human FPR2
  EC50: 0.006 µM
Human FPR1
  EC50: 4.5 µM

## COc1cc(OC(CO)C(F)(F)F)nc(-n2c(=O)c(NC(=O)c3ccc(OC(F)F)cc3)c(-c3c(F)cc(OC)cc3F)n2C)c1 (centres unmarked) [Example 390, N-(5-(2,6-Difluoro-4-methoxyphenyl)-2-(4-methoxy-6-((1,1,1-trifluoro-3-hydroxypropan-2-yl)oxy)pyridin-2-yl)-1-methyl-3-oxo-2,3-dihydro-1H-pyrazol-4-yl)-4-(difluoromethoxy)benzamide]
Human FPR2
  EC50: 0.01 µM
Human FPR1
  EC50: 2.2 µM

## COc1cc(F)c(-c2c(NC(=O)c3ccc(OC(F)F)cc3)c(=O)n(-c3cc(OCC4CCCO4)cc(C)n3)n2C)c(F)c1 (centres unmarked) [Example 391, N-(5-(2,6-Difluoro-4-methoxyphenyl)-1-methyl-2-(6-methyl-4-((tetrahydrofuran-2-yl)methoxy)pyridin-2-yl)-3-oxo-2,3-dihydro-1H-pyrazol-4-yl)-4-(difluoromethoxy)benzamide]
Human FPR2
  EC50: 0.006 µM
Human FPR1
  EC50: 0.24 µM

## COc1cc(F)c(-c2c(NC(=O)c3ccc(OC(F)F)cc3)c(=O)n(-c3cccc(OCC(C)(C)O)n3)n2C)c(F)c1 [Example 392, N-(5-(2,6-Difluoro-4-methoxyphenyl)-2-(6-(2-hydroxy-2-methylpropoxy)pyridin-2-yl)-1-methyl-3-oxo-2,3-dihydro-1H-pyrazol-4-yl)-4-(difluoromethoxy)benzamide]
Human FPR2
  EC50: 0.022 µM
Human FPR1
  EC50: 0.83 µM

## COc1cc(F)c(-c2c(NC(=O)c3ccc(OC(F)F)cc3)c(=O)n(-c3cc(OCC(C)O)cc(C)n3)n2C)c(F)c1 (centres unmarked) [Example 393, N-(5-(2,6-Difluoro-4-methoxyphenyl)-2-(4-(2-hydroxypropoxy)-6-methylpyridin-2-yl)-1-methyl-3-oxo-2,3-dihydro-1H-pyrazol-4-yl)-4-(difluoromethoxy)benzamide]
Human FPR2
  EC50: 0.015 µM
Human FPR1
  EC50: 2.8 µM

## COc1cc(F)c(-c2c(NC(=O)c3ccc(OC(F)F)cc3)c(=O)n(-c3cc(OCC(C)O)cc(C)n3)n2C)c(F)c1 (centres unmarked) [Example 394, N-(5-(2,6-Difluoro-4-methoxyphenyl)-2-(4-(2-hydroxypropoxy)-6-methylpyridin-2-yl)-1-methyl-3-oxo-2,3-dihydro-1H-pyrazol-4-yl)-4-(difluoromethoxy)benzamide]
Human FPR2
  EC50: 0.005 µM
Human FPR1
  EC50: 0.74 µM

## COc1cc(F)c(-c2c(NC(=O)c3ccc(OC(F)F)cc3)c(=O)n(-c3cccn(C)c3=O)n2C)c(F)c1 [Example 395, N-(5-(2,6-Difluoro-4-methoxyphenyl)-1-methyl-2-(1-methyl-2-oxo-1,2-dihydropyridin-3-yl)-3-oxo-2,3-dihydro-1H-pyrazol-4-yl)-4-(difluoromethoxy)benzamide]
Human FPR2
  EC50: 0.061 µM
Human FPR1
  EC50: > 10 µM

## COc1cc(F)c(-c2c(NC(=O)c3ccc(OC(F)F)cc3)c(=O)n(-c3cc(OCC4CCCO4)cc(C)n3)n2C)c(F)c1 (centres unmarked) [Example 396, N-(5-(2,6-Difluoro-4-methoxyphenyl)-1-methyl-2-(6-methyl-4-((tetrahydrofuran-2-yl)methoxy)pyridin-2-yl)-3-oxo-2,3-dihydro-1H-pyrazol-4-yl)-4-(difluoromethoxy)benzamide]
Human FPR2
  EC50: 0.002 µM
Human FPR1
  EC50: 0.3 µM

## [2H]C([2H])([2H])Oc1cc(F)c(-c2c(NC(=O)c3ccc(OC(F)F)cc3)c(=O)n(-c3cc(C(F)F)ccn3)n2C)c(F)c1 [Example 397, N-(5-(2,6-difluoro-4-(methoxy-d3)phenyl)-2-(4-(difluoromethyl)pyridin-2-yl)-1-methyl-3-oxo-2,3-dihydro-1H-pyrazol-4-yl)-4-(difluoromethoxy)benzamide]
Human FPR2
  EC50: 0.008 µM
Human FPR1
  EC50: > 10 µM

## CC(C)Oc1cc(OCCO)nc(-n2c(=O)c(NC(=O)c3ccc(OC(F)(F)F)cc3)c(-c3c(F)cc(Cl)cc3F)n2C)c1 [Example 398, N-(5-(4-chloro-2,6-difluorophenyl)-2-(6-(2-hydroxyethoxy)-4-isopropoxypyridin-2-yl)-1-methyl-3-oxo-2,3-dihydro-1H-pyrazol-4-yl)-4-(trifluoromethoxy)benzamide]
Human FPR2
  EC50: 0.024 µM
Human FPR1
  EC50: 0.59 µM
